Counter-ions that a name gives are not always drawn. Like-named read-outs stand apart in the source and are kept apart here.

The conditions of data set [1]: cited from earlier work.
Data set [2] deals with COVID-19. Nature of the data set: Clinical study of oral dronabinol plus standard of care in COVID-19 patients hospitalized for hypoxia. The following applies: for LOS: LOS = length of stay (days). Type of data set: in vivo, human.
The conditions of data set [3]: cited from earlier work; for share of the urinary excretion products of fluvoxamine: 5 mg radiolabelled dose of fluvoxamine maleate, fluvoxamine acid value is together with its N-acetylated analog; for bound to plasma protein: mostly albumin, concentration range 20 to 2000 ng/mL.
In data set [4] the test system is serotonin uptake. The following applies: in vitro, rats; cited from earlier work.
In data set [5] the test system is norepinephrine reuptake. Conditions: in vitro, rats; cited from earlier work.
In data set [6] the target is σ-1 non-opioid receptor (Homo sapiens, UniProt Q99720). The following applies: cited from earlier work.
Data set [7] relates to serotonin reuptake. Conditions: in vitro as well as in vivo; cited from earlier work.
For data set [8] the following is noted: cited from earlier work. The source holds these as a separate data set.

Sequence of σ-1 non-opioid receptor (Q99720 whole entry): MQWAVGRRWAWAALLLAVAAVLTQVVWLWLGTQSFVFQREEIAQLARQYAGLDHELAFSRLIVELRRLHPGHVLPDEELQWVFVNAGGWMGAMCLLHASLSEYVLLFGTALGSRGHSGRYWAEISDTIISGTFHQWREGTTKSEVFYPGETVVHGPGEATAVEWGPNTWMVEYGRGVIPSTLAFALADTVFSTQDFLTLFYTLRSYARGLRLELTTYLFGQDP

`CCCCCc1cc(O)c2c(c1)OC(C)(C)[C@@H]1CCC(C)=C[C@@H]21` [dronabinol, (−)-(6aR,10aR)-6,6,9-trimethyl-3-pentyl-6a,7,8,10a-tetrahydro-6H-benzo[c]-chromen-1-ol]: the “time for which low levels of metabolites are detected in the urine and feces” value in data set [1] (following single dose administration) is recorded as “more than 5 weeks”. Moreover, in data set [1] (in vivo, po), the “radio-labeled oral dose recovered from the feces within 72 hours” value is on record as “about half”. The “radio-labeled oral dose recovered from urine” value in data set [1] (in vivo, po) is recorded as 10-15%. Further, in data set [1] (oral), the “absorbed after single oral doses” value is on record as 90-95%. For the same compound, the plasma protein binding result in data set [1] (Δ9-THC and its metabolites) was “approximately 97%”. For the same compound, the “survival rate” value is on record as 88.9% in data set [2] (2.5 mg dronabinol regimen); 89% in data set [2] (2.5 mg group (2.5 mg twice orally daily)); 94.1% in data set [2] (5 mg dronabinol regimen); 93.5% in data set [2] (5 mg treated group (5 mg orally twice daily)); 93.5% in data set [2] (all dronabinol-treated patients (77), standard of care alone 80%). The LOS in data set [2] (2.5 mg dronabinol regimen) came out at 17.4; in data set [2] (5 mg dronabinol regimen), 8.8. Moreover, the “# Survived” value came to 8 in data set [2] (2.5 mg dronabinol regimen, total 9 in group) and 64 in data set [2] (5 mg dronabinol regimen, total 68 in group). For the same compound, the Mortality rate in data set [2] (hospitalized COVID-19 patients requiring oxygen supplementation, 2.5 mg or 5 mg dronabinol orally BID plus standard of care, 77 patients, untreated group 20.5%) came to 6.5%. For the same compound, the “average first peak C-reactive protein (CRP) levels, difference” value in data set [2] (lower in the treatment group than untreated, p-value 0.07, not statistically significant) amounted to 14%. Besides, the reduction in mortality in data set [2] (treated group (77) versus untreated/control group (44), p-value 0.02) is given as 68%. The “Length of stay in the hospital” value in data set [2] (treated group, untreated group 15.6 days) came out at 9.9 days. In data set [2] (treated versus untreated group, p-value 0.01), the “reduction in length of stay” value was determined as 37%.

Consider `NCCO/N=C(\CCCC(=O)O)c1ccc(C(F)(F)F)cc1` [fluvoxamine acid], for which the “share of the urinary excretion products of fluvoxamine” value in data set [3] is “about 60%”. In addition, the “potency on serotonin uptake relative to the parent compound” value in data set [4] was 1-2 orders of magnitude less potent.

As to `COCCCC/C(=N\OCCO)c1ccc(C(F)(F)F)cc1` [fluvoxamine ethanol], the “share of the urinary excretion products of fluvoxamine” value in data set [3] is “about 10%”. For the same compound, the “inhibition of serotonin uptake” value in data set [4] was “inactive”. Besides, the norepinephrine reuptake inhibition entry in data set [5] is “inactive”.

`COCCCC/C(=N\OCCN)c1ccc(C(F)(F)F)cc1` [fluvoxamine maleate]: the “effect of food on oral bioavailability” value in data set [3] (human, in vivo, po) was “not significantly affected by food”.

For `COCCCC/C(=N\OCCN)c1ccc(C(F)(F)F)cc1` [fluvoxamine, 2-[(E)-[5-methoxy-1-[4-(trifluoromethyl)phenyl]pentylidene]amino]oxyethanamine], in data set [6], the “agonistic sigma1 binding affinity, rank among agents tested” value is listed as “strongest”. The “mean apparent volume of distribution” value in data set [3] (human, in vivo) is given as “approximately 25 L/kg”; in data set [3] (human, in vivo, listed as Fluvoxamine), 25 L/kg. Also, the “bound to plasma protein” value is recorded as “Approximately 80%” in data set [3] and 80% in data set [3] (listed as Fluvoxamine). In addition, the serotonin reuptake inhibition entry in data set [7] is “potent”. The “decrease in clearance in association with hepatic dysfunction” value in data set [8] (cross study comparison, healthy subjects versus patients with hepatic dysfunction) was 30%. For the same compound, the “clearance reduced in elderly patients” value in data set [8] (human, in vivo) is given as “about 50%”.

Values taken from US20230263812A1, “Compositions and Methods for Treating COVID-19 and/or Acute Respiratory Failure and/or Acute Respiratory Distress Syndrome Using Tetrahydrocannabinol and Compositions Including Same” (priority 2020, published 2023).
